Experimental data as given in patent publication US20140107109A1, “AMINO-DIHYDROTHIAZINE AND AMINO-DIOXIDO DIHYDROTHIAZINE COMPOUNDS AS BETA-SECRETASE ANTAGONISTS AND METHODS OF USE” (Amgen Inc., priority 2012, published 2014).

Tests used:
[1] = molecular target: Beta Secretase enzyme (BACE1) (Homo sapiens, UniProt P56817); assay: In vitro enzymatic BACE FRET assay; assay type: biochemical; settings: read-out: BACE1 FRET assay IC50
Description: In Vitro Enzymatic BACE FRET (Fluorescence Resonance Energy Transfer) Assay (Enzyme Assay Data in the Example Tables I and II)
The assay buffer used in this screen is 0.05 M acetate, pH 4.2, 10% DMSO final, 100 uM genapol (which is a nonionic detergent, below its Critical Micelle Concentration). […] This assay is effectively started by the addition of FRET substrate (50 nM) and the combination is incubated for one hour. The FRET assay is terminated with by addition of Tris buffer, which raises the pH to neutrality, and the fluorescence is determined. The FRET substrate is a peptide with commercially available fluorophore and quencher, on opposite sides of the BACE cleavage site. Proteolytic cleavage of the FRET substrate releases quenching of fluorescence (excitation […] and […]).

Cathepsin D (Cat D) = molecular target: T1, Cathepsin D (Cat D) (Homo sapiens, UniProt P07339); assay: In vitro enzymatic Cathepsin D (Cat D) FRET assay; assay type: biochemical; settings: read-out: CatD IC50
T1 construct: Recombinant Cat D was expressed in CHO cells; made in house; host or cells: CHO cells
T1 sequence (P07339 65-412, species assumed): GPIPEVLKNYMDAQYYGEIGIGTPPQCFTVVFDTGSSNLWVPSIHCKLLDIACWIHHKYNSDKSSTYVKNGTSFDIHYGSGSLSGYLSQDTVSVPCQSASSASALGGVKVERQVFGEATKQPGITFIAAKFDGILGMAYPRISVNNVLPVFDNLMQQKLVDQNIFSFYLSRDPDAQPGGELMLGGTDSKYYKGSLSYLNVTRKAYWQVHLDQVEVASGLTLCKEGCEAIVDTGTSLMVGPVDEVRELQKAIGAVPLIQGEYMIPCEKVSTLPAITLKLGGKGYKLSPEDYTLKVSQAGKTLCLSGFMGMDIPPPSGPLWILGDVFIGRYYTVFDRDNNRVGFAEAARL
Description: In Vitro Enzymatic Cathepsin D (Cat D) FRET (Fluorescence Resonance Energy Transfer) Assay Recombinant Cat D was expressed in CHO cells. […] The Cat D enzyme (9 nM) is pre-incubated for one hour with inhibitors, typically in about 1 uL of DMSO according to a serial dilution, is added thereto. […] The FRET assay is terminated with by addition of Tris buffer, which raises the pH to neutrality, and the fluorescence is determined. The FRET substrate is a peptide with commercially available fluorophore and quencher, on opposite sides of the BACE cleavage site. The Cat D substrate peptide sequence is based on sequence #1 of Table 1 from Gulnik et al. […] Alternatively, a Cat D assay may also be run according to the procedure described in the article, Characterization of new fluorgenic substrates for the rapid and sensitive assay of cathepsin E and cathepsin D, J. Biochem., 125:1137, 1999. In addition, the cathepsin D and cathepsin E assays are described in PCT publication WO2011069934. This WIPO publication describes BACE inhibitor compounds having an amide linker connecting two aromatic groups with extremely poor cathepsin D and/or cathepsin E inhibitory activity (see Table 2). Where available, the in-vitro Cat D FRET assay data for each of the Examples, conducted by the first procedure, is provided.

[2] = test system: Aβ40 in conditioned medium of cells stably expressing Amyloid Precursor Protein (APP); assay: In vitro BACE cell-based assay (HEK cell assay), Aβ40 sandwich ELISA; settings: Homo sapiens, HEK293; Aβ40, 24 h incubation
Description: In Vitro BACE Cell-Based Assay
The cell-based assay measures inhibition or reduction of Aβ40 in conditioned medium of test compound treated cells expressing amyloid precursor protein.
Cells stably expressing Amyloid Precursor Protein (APP) were plated at a density of 40K cells/well in 96 well plates (Costar). The cells were cultivated for 24 hours at 37C. and 5% CO2 in DMEM supplemented with 10% FBS. The test compounds were then added to cells in 10-point dose response concentrations with the starting concentration being either 100 μM or 10 μM. The compounds were diluted from stock solutions in DMSO and the final DMSO concentration of the test compounds on cells was 0.1%. After 24 h of incubation with the test compounds the supernatant conditioned media was collected and the Aβ 40 levels were determined using a sandwich ELISA. The IC50 of the compound was calculated from the percent of control or percent inhibition of Aβ 40 as a function of the concentration of the test compound.
The sandwich ELISA to detect Aβ 40 was performed in 96 well microtiter plates, which were pre-treated with goat anti-rabbit IgG (Pierce). The capture and detecting antibody pair that were used to detect Aβ 40 from cell supernatants were affinity purified pAb40 (Biosource) and biotinylated 6E10 (Signet Labs Inc.), respectively. The optimal concentration for the pAb40 antibody was 3 μg/ml in Superblock/TBS (Pierce) that was supplemented with 0.05% Tween 20 (Sigma). Optimal concentration for the detection antibody 6E10-biotinylated was 0.5 μg/ml in Superblock/TBS (Pierce) that had been supplemented with 2% normal goat serum and 2% normal mouse serum.
Cellular supernatants were incubated with the capture antibody for 3 h at 4° C., followed by 3 wash steps in TBS-tween (0.05%). The detecting antibody incubation was for 2 h at 4° C., again followed by the wash steps as described previously. The final readout of the ELISA is Time-Resolved Fluorescence (counts per minute) using Delfia reagents Streptavidin-Europium and Enhancement solutions (Perkin Elmer) and the Victor 2 multilabel counter (Perkin Elmer).

Sequence of Beta Secretase enzyme (BACE1) (P56817 46-501): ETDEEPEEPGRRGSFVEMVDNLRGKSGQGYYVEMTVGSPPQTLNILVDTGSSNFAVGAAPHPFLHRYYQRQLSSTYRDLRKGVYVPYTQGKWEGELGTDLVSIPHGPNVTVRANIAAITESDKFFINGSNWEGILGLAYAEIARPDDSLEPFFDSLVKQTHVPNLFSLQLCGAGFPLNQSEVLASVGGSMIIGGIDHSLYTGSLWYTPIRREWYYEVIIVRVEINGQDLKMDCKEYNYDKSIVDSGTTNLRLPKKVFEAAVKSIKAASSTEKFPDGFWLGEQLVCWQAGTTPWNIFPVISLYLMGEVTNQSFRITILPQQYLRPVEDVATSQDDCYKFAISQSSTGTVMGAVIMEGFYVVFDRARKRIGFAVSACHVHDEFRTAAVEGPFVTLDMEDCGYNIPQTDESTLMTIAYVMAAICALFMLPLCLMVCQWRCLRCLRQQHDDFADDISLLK

Structure (SMILES) | IC50 [1] [nM] | IC50 (Cathepsin D (Cat D)) [nM] | IC50 [2] [nM]
COc1cnc(C(=O)Nc2ccc(F)c([C@]3(C)CS(=O)(=O)[C@@](C)(F)C(N)=N3)c2)cn1 [Example 30, N-(3-((3R,6R)-5-amino-6-fluoro-3,6-dimethyl-1,1-dioxido-3,6-dihydro-2H-1,4-thiazin-3-yl)-4-fluorophenyl)-5-methoxy-2-pyrazinecarboxamide] | 3.1 | > 400000 | 80.1
COc1cnc(C(=O)Nc2ccc(F)c(C3(CF)CS(=O)(=O)C(C)(C)C(N)=N3)c2)cn1 (stereo not drawn) [Example 31, N-(3-(-5-amino-3-(fluoromethyl)-6,6-dimethyl-1,1-dioxido-3,6-dihydro-2H-1,4-thiazin-3-yl)-4-fluorophenyl)-5-methoxy-2-pyrazinecarboxamide] | 3.8 | > 400000 | 27.9
COc1cnc(C(=O)Nc2ccc(F)c(C3(C(F)F)CS(=O)(=O)C(C)(C)C(N)=N3)c2)cn1 (stereo not drawn) [Example 32, N-(3-(-5-amino-3-(difluoromethyl)-6,6-dimethyl-1,1-dioxido-3,6-dihydro-2H-1,4-thiazin-3-yl)-4-fluorophenyl)-5-methoxy-2-pyrazinecarboxamide] | 53.1 | > 400000 | 1420
CC1(c2cc(NC(=O)c3ccc(Cl)cn3)cc(F)c2F)CS(=O)(=O)C(C)(C)C(N)=N1 (stereo not drawn) [Example 35, N-(3-(-5-amino-3,6,6-trimethyl-1,1-dioxido-3,6-dihydro-2H-1,4-thiazin-3-yl)-4,5-difluorophenyl)-5-chloro-2-pyridinecarboxamide] | 2.7 | 99800 | 12.2
COc1cnc(C(=O)Nc2ccc(F)c([C@]3(C(F)F)CS(=O)(=O)C(C)(C)C(N)=N3)c2)cn1 [Example 36, (S)—N-(3-(5-amino-3-(difluoromethyl)-6,6-dimethyl-1,1-dioxido-3,6-dihydro-2H-1,4-thiazin-3-yl)-4-fluorophenyl)-5-methoxypyrazine-2-carboxamide] | 20.2 | > 400000 | 765
CC1(C)C(N)=N[C@](C)(c2cc(NC(=O)c3ccc(Cl)cn3)cc(F)c2F)CS1(=O)=O [Example 38, (R)—N-(3-(5-amino-3,6,6-trimethyl-1,1-dioxido-3,6-dihydro-2H-1,4-thiazin-3-yl)-4,5-difluorophenyl)-5-chloropicolinamide] | 1 | 72800 | 6.5
CC1(C)C(N)=N[C@@](C)(c2cc(NC(=O)c3ccc(Cl)cn3)cc(F)c2F)CS1(=O)=O [Example 39, (S)—N-(3-(5-amino-3,6,6-trimethyl-1,1-dioxido-3,6-dihydro-2H-1,4-thiazin-3-yl)-4,5-difluorophenyl)-5-chloropicolinamide] | 1180 | 225000 | 3270
COc1cnc(C(=O)Nc2ccc(F)c([C@]3(C)CS(=O)(=O)C(C)(C)C(N)=N3)n2)cn1 [Example 40, (R)—N-(6-(5-amino-3,6,6-trimethyl-1,1-dioxido-3,6-dihydro-2H-1,4-thiazin-3-yl)-5-fluoropyridin-2-yl)-5-methoxypyrazine-2-carboxamide] | 8200 | > 400000 | 6980
COc1cnc(C(=O)Nc2cc(C3(C)CS(=O)(=O)C(C)(C)C(N)=N3)c(F)cn2)cn1 (stereo not drawn) [Example 41, N-(4-(5-amino-3,6,6-trimethyl-1,1-dioxido-3,6-dihydro-2H-1,4-thiazin-3-yl)-5-fluoropyridin-2-yl)-5-methoxypyrazine-2-carboxamide] | 252 | 333000 | 935
COc1cnc2c(Nc3ccc(F)c([C@@]4(C)N=C(N)C(C)(C)S(=O)(=O)[C@@H]4F)c3)nccc2c1 [Example 44, (2S,3R)-5-Amino-2-fluoro-3-(2-fluoro-5-((3-methoxy-1,7-naphthyridin-8-yl)amino)phenyl)-3,6,6-trimethyl-3,6-dihydro-2H-1,4-thiazine 1,1-dioxide] | 9.9 | 357000 | 60.4
CC1(C)C(N)=N[C@](C)(c2cc(Nc3nccc4cc(Cl)cnc34)ccc2F)CS1(=O)=O [Example 45, N-(3-((3R)-5-amino-3,6,6-trimethyl-1,1-dioxido-3,6-dihydro-2H-1,4-thiazin-3-yl)-4-fluorophenyl)-3-chloro-1,7-naphthyridin-8-amine] | 0.59 | 90400 | 7.5
COc1cnc2c(Nc3ccc(F)c([C@]4(C)CS(=O)(=O)C(C)(C)C(N)=N4)c3)nccc2c1 [Example 46, N-(3-((3R)-5-amino-3,6,6-trimethyl-1,1-dioxido-3,6-dihydro-2H-1,4-thiazin-3-yl)-4-fluorophenyl)-3-methoxy-1,7-naphthyridin-8-amine] | 5.4 | 397000 | 4
COc1cnc2c(Nc3ccc(F)c([C@]4(C)CS(=O)(=O)C(C)(C)C(N)=N4)c3)nccc2n1 [Example 47, N-(3-((3R)-5-amino-3,6,6-trimethyl-1,1-dioxido-3,6-dihydro-2H-1,4-thiazin-3-yl)-4-fluorophenyl)-2-methoxypyrido[3,4-b]pyrazin-5-amine] | 2.9 | > 400000 | 5.6
CC1(C)C(N)=N[C@](C)(c2cc(Nc3nccc4cc(C#N)cnc34)ccc2F)CS1(=O)=O [Example 48, 8-((3-((3R)-5-amino-3,6,6-trimethyl-1,1-dioxido-3,6-dihydro-2H-1,4-thiazin-3-yl)-4-fluorophenyl)amino)-1,7-naphthyridine-3-carbonitrile] | 0.54 | 66700 | 1.9
CC1(C)C(N)=N[C@](C)(c2cc(Nc3ncc(F)c4cc(Cl)cnc34)ccc2F)CS1(=O)=O [Example 49, N-(3-((3R)-5-amino-3,6,6-trimethyl-1,1-dioxido-3,6-dihydro-2H-1,4-thiazin-3-yl)-4-fluorophenyl)-3-chloro-5-fluoro-1,7-naphthyridin-8-amine] | 0.56 | 27100 | 15.1
COc1cnc2c(Nc3ccc(F)c([C@]4(C)CS(=O)(=O)C(C)(C)C(N)=N4)c3)ncc(F)c2c1 [Example 50, N-(3-((3R)-5-amino-3,6,6-trimethyl-1,1-dioxido-3,6-dihydro-2H-1,4-thiazin-3-yl)-4-fluorophenyl)-5-fluoro-3-methoxy-1,7-naphthyridin-8-amine] | 2 | 73300 | 5.3
COc1cnc2c(Nc3ccc(F)c([C@]4(C)CS(=O)(=O)C(C)(C)C(N)=N4)c3)ncnc2c1 [Example 51, N-(3-((3R)-5-amino-3,6,6-trimethyl-1,1-dioxido-3,6-dihydro-2H-1,4-thiazin-3-yl)-4-fluorophenyl)-7-methoxypyrido[3,2-d]pyrimidin-4-amine] | 2.7 | 81000 | 3
CC1(C)C(N)=N[C@](C)(c2cc(Nc3ncnc4cc(Cl)cnc34)ccc2F)CS1(=O)=O [Example 52, N-(3-((3R)-5-amino-3,6,6-trimethyl-1,1-dioxido-3,6-dihydro-2H-1,4-thiazin-3-yl)-4-fluorophenyl)-7-chloropyrido[3,2-d]pyrimidin-4-amine] | 2 | 36000 | 2.3
